Assay results as given in paper PMC5983452 (PLoS ONE, 2018).
Structures can show the parent of a compound that is named as a salt.

Columns and labels:
in vitro [1] = format: in vitro ADME; conditions: plasma
Protocol: (§1) After stirred for 30 min at 25 °C, NaBH3CN […]
(§2) mixture was concentrated under vacuum. […] The combined organic […]
(§3) The crude product was further
(§4) The fractions containing product were combined and concentrated. […]
(§5) cyclopropylisoxazole-3-carboxamide hydrochloride as a light yellow solid.
(§6) Media was changed every two or three days. On
(§7) 95% at 37°C. […] Cells were
(§8) At 120 min the companion plate was
(§9) Permeability was assessed in duplicate, on two […]
(§10) different occasions. […] Compounds were quantified by LC-MS/MS analysis using a 5 point calibration curve.
(§11) The permeability coefficient
(§12) Solutions of test compounds (1 µM, 0.5% final
(§13) Incubations were performed in
(§14) Haloperidol was incubated in parallel as the control compound for each species.
(§15) (7 points) and protein containing solutions (6 points).
(§16) Liver microsome (LM) stability. […]
(§17) the reaction. The final incubation volume was 50 µL. Negative control incubations were included where phosphate buffer was […]
(§18) min. The negative controls were incubated for 45 min only. […]
(§19) µL methanol at the appropriate time points.
(§20) Subsequently, intrinsic CL (CLint) was […]

[2] = format: in vitro ADME; conditions: plasma
Protocol: as §1, §2, §3, §4, §5, §6, §7, §8, §9, §10, §11, §12, §13, §14, §15, §16, §17, §18, §19, §20

in vitro [3] = format: in vitro ADME, CD-1 mice; conditions: male, CD-1, mouse, microsomes, pH 7.4
in vitro [4] = format: in vitro ADME, SD rats; conditions: male, Sprague-Dawley
in vitro [5] = format: in vitro ADME, beagle dogs; conditions: male, beagle, dog, microsomes, pH 7.4
[6] = Hepatocyte stability, monkey; format: in vitro ADME, cyno-monkeys; conditions: male, cryopreserved hepatocytes, read-out: CLint measured with hepatocytes, Monkey
[7] = Dog pharmacokinetic study; format: in vivo, male beagle dogs; conditions: male Beagle
Protocol: (§21) 2. […] Food was returned 4 hours after dosing. […] 4. […] Food was returned 4 hours after dosing. […] Supplemental Results:SMYD2 compound characterization […] The […] nM (Figure S8A).

[8] = Monkey (NHP) pharmacokinetic study; format: in vivo, male cynomolgus monkeys; conditions: cynomolgus monkey, male Cynomolgus
Protocol: as §21

in vitro [9] = conditions: human
Protocol: Caco-2 permeability. Caco-2 cells (obtained from the ATCC), between passage numbers 40 to 60, were seeded onto Millipore
Multiscreen plates at 1x10^5 cells/cm2 in Dulbecco's Modified Eagle Medium. Media was changed every two or three days. On
Day 20, the permeability study was performed using Hanks Balanced Salt Solution (HBSS) pH 7.4 buffer with 25 mM HEPES and
Incubations were carried out in an atmosphere of 5% CO2 with a relative humidity of
The monolayers were prepared by rinsing both basolateral and apical surfaces twice with HBSS at 37°C. Cells were
then incubated with HBSS in both apical and basolateral compartments for 40 min to stabilize physiological parameters. HBSS
was then removed from the apical or basolateral compartment and replaced with 10 µM test compound dosing solutions (1% final
DMSO). The pH of supplemented HBSS was 6.5 and 7.5 in the apical and basolateral compartments, respectively. The apical
compartment inserts were then placed into ‘companion’ plates containing fresh HBSS.
removed and apical and basolateral samples diluted for analysis by LC-MS/MS. Permeability was assessed in duplicate, on two
different occasions. On each plate atenolol and propanolol were run as controls. Compounds were quantified by LC-MS/MS analysis using a 5 point calibration curve. The starting concentration (C0) was determined from the dosing solution and
experimental recovery calculated from C0 and both apical and basolateral compartment concentrations. The permeability coefficient
(Papp) for each compound was calculated as: (dQ/dt)/(C0xA), where dQ/dt is the rate of permeation of the drug across the cells, C0
is the donor compartment concentration at time zero and A is the area of the cell monolayer.
Plasma protein binding. Plasma protein binding was assessed by equilibrium dialysis utilizing the HT-dialysis cell format with a
cellulose semi-permeable membrane (molecular weight cut-off of 5000 Da). Solutions of test compounds (1 µM, 0.5% final
DMSO concentration) were prepared in isotonic phosphate buffer (pH 7.4) and 100% pooled male CD-1 mouse plasma. The
buffer solution was added to one side of the membrane and the plasma solution to the other side. Incubations were performed in
Haloperidol was incubated in parallel as the control compound for each species. At the end of the incubation time, samples were taken from both sides of the membrane.
Following protein precipitation, the samples were analyzed by LC-MS/MS using two sets of calibration standards for protein free
(7 points) and protein containing solutions (6 points). Samples were quantified using standard curves prepared in the equivalent
matrix. The fraction unbound in plasma (fu) was calculated using the following equation:
Where, PC = sample concentration in protein containing side, PF = sample concentration in protein free side, and VCorrection =
correction factor for the volume shift i.e. ratio of the volume of the protein after dialysis to that before dialysis.

KYSE-150 = assay: Cell proliferation, KYSE-150; format: cell-based; conditions: Homo sapiens, read-out: Cellular Proliferation IC50
Protocol: Cell lines used in these experiments were obtained from the following sources and were cultured according to conditions specified by the respective cell banks. […] The cell lines listed above were tested for mycoplasma and were negative. Cells were authenticated by STR method or vendor protocols. All 313 cell lines in the CRIPSR pooled screen were purchased from commercial vendors and were STR authenticated and mycoplasma negative. A broad panel of cancer cell lines was screened in the Eurofins Oncopanel. All cells in this panel were mycoplasma negative and STR verified.
Thus, 5 compounds representing 4 distinct pharmacophore series of SMYD2 inhibitors are now available for testing the dependence of cancer lines on SMYD2 activity. […] In stark contrast, however, no correlation is seen between the potency for BTF3 methylation inhibition and anti-proliferative activity among these compounds (Fig 3B).

SMYD2 = SMYD2 (Homo sapiens, UniProt Q9NRG4); assay: Intracellular BTF3 monomethylation (BTF3me1) western blot; format: cell-based; parameters: endogenous in cells; host or cells: 313 cancer cell lines; conditions: read-out: Intracellular Methylation IC50
Protocol: Cells were lysed in 1X RIPA Buffer containing 10% SDS and Halt™ Protease Inhibitor Cocktail (Thermo Fisher Scientific) and incubated on ice for 30 minutes before sonication (Amplitude 20%/10sec) twice. Lysates were spun at […] at 4°C for 10min and normalized for protein concentration by BCA assay (Thermo Fisher Scientific). […] Blots were imaged using the Odyssey Imaging System (LICOR Biosciences). […] BTF3me1 is a custom generated polyclonal antibody, affinity purified from serum of rabbits injected with adjuvant conjugated peptide corresponding to methylated K1 of BTF3 (K(Me)-[…]).
SMYD2 catalyzes the methylation of lysine residues on several proteins, including BTF3 [40].

[10] = plasma, IV 1 mg/kg, read-out: CLp
[11] = plasma, IV 1 mg/kg, read-out: Vss

Chain of SMYD2 (Q9NRG4 whole entry): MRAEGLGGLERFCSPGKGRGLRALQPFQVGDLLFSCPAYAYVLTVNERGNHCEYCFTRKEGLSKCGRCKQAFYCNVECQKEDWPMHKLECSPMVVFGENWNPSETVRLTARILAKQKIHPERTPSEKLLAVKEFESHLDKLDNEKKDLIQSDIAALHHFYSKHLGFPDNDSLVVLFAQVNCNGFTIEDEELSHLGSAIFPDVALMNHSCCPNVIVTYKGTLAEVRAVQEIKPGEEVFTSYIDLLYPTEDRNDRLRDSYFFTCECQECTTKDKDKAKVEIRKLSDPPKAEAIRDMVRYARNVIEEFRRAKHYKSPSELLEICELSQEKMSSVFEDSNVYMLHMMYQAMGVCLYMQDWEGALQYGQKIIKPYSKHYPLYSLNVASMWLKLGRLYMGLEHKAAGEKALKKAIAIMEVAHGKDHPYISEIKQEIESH

With `NC1CCC(S(=O)(=O)N2C3CCC2CC(NC(=O)c2cc(C4CC4)on2)C3)CC1` [EPZ028862, N-((1R,3R,5S)-8-((1r,4R)-4-aminocyclohexylsulfonyl)-8-aza-bicyclo[3.2.1]octan-3-yl)-5-cyclopropylisoxazole-3-carboxamide hydrochloride] the fraction unbound at 16 h, 1 µM (in vitro [1]; dog, pH 7.4) was 0.82, the fraction unbound at 16 h, 1 µM (in vitro [1]; rat, pH 7.4, Rat fu (unbound fraction)) was 0.64 and the “Monkey fu (unbound fraction)” value [2] was “highly bound”. For the same compound, the microsomal CLint at 1 µM (in vitro [3]) was 3.3 µL/min/mg, the “CLint measured with liver microsomes, Rat” value (in vitro [4]; 1 µM, pH 7.4) was 3.4 µL/min/mg microsomal protein and the microsomal CLint at 1 µM (in vitro [4]; rat, microsomes, pH 7.4, CLint measured with liver microsomes) was under 3 µL/min/mg. The microsomal CLint at 1 µM (in vitro [5]) was under 3 µL/min/mg, the hepatocyte CLint at 1 µM [6] was 3.2 µL/min/1e6 cells and the MRT ([7]; plasma, IV 1 mg/kg, PO 5 mg/kg) was 7 ± 0.2 h. The bioavailability ([7]; plasma, IV 1 mg/kg, PO 5 mg/kg) was 70 ± 6%, the half-life ([7]; plasma, IV 1 mg/kg, PO 5 mg/kg) was 5.4 ± 0.1 h and the clearance [7, 10] was 13.9 ± 1.2 mL/min/kg. For the same compound, the Vd [7, 11] was 5.8 ± 0.6 L/kg, the Tmax ([7]; plasma, PO 5 mg/kg) was 1.5 ± 0.9 h and the CL renal ([7]; urine and plasma, IV 1 mg/kg) was 1.97 ± 0.38 mL/min/kg. The MRT ([8]; plasma, IV 1 mg/kg, PO 5 mg/kg) was 7.4 ± 1.5 h, the bioavailability ([8]; plasma, IV 1 mg/kg, PO 5 mg/kg) was 62 ± 13% and the half-life ([8]; plasma, IV 1 mg/kg, PO 5 mg/kg) was 5.6 ± 1.3 h. It also gave a clearance [8, 10] of 21.4 ± 3.4 mL/min/kg, a Vd [8, 11] of 9.5 ± 2.5 L/kg and a Tmax ([8]; plasma, PO 5 mg/kg) of 2 h. The CL renal ([8]; urine and plasma, IV 1 mg/kg) was 1.06 ± 0.84 mL/min/kg, the Papp A→B at 120 min, 10 µM (in vitro [9]; Caco-2, Papp,AB) was 0.46 ×10⁻⁶ cm/s and the Papp B→A at 120 min, 10 µM (in vitro [9]; Caco-2, Papp,BA) was 16.4 ×10⁻⁶ cm/s.
For `O=C(NC1CN(Cc2cnn(Cc3ccc(Cl)cc3)c2)C1)c1cn(C2CC2)nn1` [EPZ033294], the IC50 (KYSE-150) was over 40000 nM and the IC50 (SMYD2) was 2.9 nM.
